# Source: PubChem BioAssay (NCI)
#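 The compound was tested at five concentrations on cells cultured in 96-well plates, with a 48-hour exposure period. GI50 marks 50% less growth. TGI is the concentration that stops growth completely.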 Where a SMILES comes first, the peptide text is derived from it. The star is where a group is joined. Trt = c1ccc(C(c2ccccc2)(c2ccccc2)*)cc1; Cbz = O=C(OCc1ccccc1)*
# Assays:
# Assay in all cases: DTP human tumour cell line panel, 48 h
# A549 NSCLC = tested on: A549 NSCLC
# DU-145 prostate = tested on: DU-145 prostate
# HCT-15 colon = tested on: HCT-15 colon
# IGROV1 ovarian = tested on: IGROV1 ovarian
# KM12 colon = tested on: KM12 colon
# MDA-MB-435 = tested on: MDA-MB-435
# NCI-H522 lung = tested on: NCI-H522 lung
# OVCAR-8 ovarian = tested on: OVCAR-8 ovarian
# PC-3 prostate = tested on: PC-3 prostate
# SK-OV-3 ovarian = tested on: SK-OV-3 ovarian
Structure (SMILES),GI50 (A549 NSCLC),TGI (A549 NSCLC),GI50 (DU-145 prostate),TGI (DU-145 prostate),GI50 (HCT-15 colon),TGI (HCT-15 colon),GI50 (IGROV1 ovarian),TGI (IGROV1 ovarian),GI50 (KM12 colon),TGI (KM12 colon),GI50 (MDA-MB-435),TGI (MDA-MB-435),GI50 (NCI-H522 lung),TGI (NCI-H522 lung),GI50 (OVCAR-8 ovarian),TGI (OVCAR-8 ovarian),GI50 (PC-3 prostate),TGI (PC-3 prostate),GI50 (SK-OV-3 ovarian),TGI (SK-OV-3 ovarian)
O=C(/C=C/c1ccco1)c1ccc(Nc2nc(Nc3ccc(F)cc3)nc(Nc3ccc(F)cc3)n2)cc1,19.8 µM,> 100 µM,28.8 µM,> 100 µM,22.5 µM,> 100 µM,10.7 µM,29.6 µM,13.3 µM,> 100 µM,16.6 µM,74.4 µM,21.4 µM,74.6 µM,17.4 µM,46.1 µM,6.83 µM,21.9 µM,32 µM,> 100 µM
Cc1c(Cl)cccc1NC(=O)c1sc2nc3c(cc2c1N)CCCC3,0.984 µM,> 100 µM,1.38 µM,> 100 µM,0.392 µM,> 100 µM,0.82 µM,> 100 µM,0.482 µM,> 100 µM,0.226 µM,0.775 µM,0.241 µM,0.812 µM,3.42 µM,> 100 µM,1.11 µM,> 100 µM,0.444 µM,> 100 µM
O=S(=O)(O)SCCNCCCCCC1CCCCC1,–,23 µM,–,12.1 µM,–,24.5 µM,–,20.7 µM,–,7.76 µM,–,18.5 µM,–,37.3 µM,–,33.1 µM,–,22.7 µM,–,31.2 µM
COC(=O)C(CSC(c1ccccc1)(c1ccccc1)c1ccccc1)NC(=O)C(CC(N)=O)NC(=O)OCc1ccccc1 (stereo not drawn) (Cbz-Asn-Cys(Trt)-OMe; configuration not given here),4.38 µM,51.7 µM,2.68 µM,8.61 µM,3.81 µM,14.1 µM,6.1 µM,25.7 µM,4.62 µM,17 µM,2.13 µM,5.2 µM,3.91 µM,18.7 µM,3.16 µM,17 µM,3.57 µM,17.2 µM,2.42 µM,10.2 µM
O=C(O)CCc1nc(-c2ccccc2-n2cccc2)no1,–,> 100 µM,–,> 100 µM,–,> 100 µM,–,> 100 µM,–,> 100 µM,–,46.3 µM,–,> 100 µM,–,> 100 µM,–,> 100 µM,–,> 100 µM
O=Cc1ccc(N2CCN(c3ccc(C=O)cc3)CC2)cc1,40.1 µM,> 100 µM,> 100 µM,> 100 µM,> 100 µM,> 100 µM,45.8 µM,> 100 µM,> 100 µM,> 100 µM,> 100 µM,> 100 µM,43.1 µM,> 100 µM,> 100 µM,> 100 µM,> 100 µM,> 100 µM,> 100 µM,> 100 µM
NS(=O)(=O)c1ccc(NC(=O)c2cccc(NC3=C(Cl)C(=O)N(Cc4ccccc4)C3=O)c2)cc1,21.2 µM,52.3 µM,11.1 µM,25.1 µM,15.1 µM,38.8 µM,4.78 µM,19.2 µM,6.83 µM,26.5 µM,8.63 µM,24.1 µM,12.1 µM,30.9 µM,12.3 µM,41.8 µM,6.57 µM,29 µM,26.9 µM,77.5 µM
CCCOC(=O)C1C2CCC(O2)C1C(=O)O (stereo not given),–,> 100 µM,–,> 100 µM,–,> 100 µM,–,> 100 µM,–,> 100 µM,–,> 100 µM,–,> 100 µM,–,> 100 µM,–,> 100 µM,–,> 100 µM
CC1=C(N2CC2)C(=O)c2ccccc2C1=O,–,2.17 µM,–,0.276 µM,–,3.52 µM,–,8.58 µM,–,2.64 µM,–,2.84 µM,–,2.36 µM,–,2.82 µM,–,3.87 µM,–,> 100 µM
O=C1/C(=C\c2ccccc2)C2OCC=C3CN4CCC56c7ccccc7N1C5C2C3CC46 (stereo not given),> 100 µM,> 100 µM,> 100 µM,> 100 µM,7.77 µM,> 100 µM,4.69 µM,> 100 µM,34.4 µM,> 100 µM,3.59 µM,> 100 µM,8.01 µM,> 100 µM,85.8 µM,> 100 µM,18 µM,> 100 µM,> 100 µM,> 100 µM
NC(=O)c1ccc(N(C(N)=O)c2c(F)cccc2F)nc1-c1ccc(F)cc1F,> 100 µM,> 100 µM,> 100 µM,> 100 µM,> 100 µM,> 100 µM,> 100 µM,> 100 µM,> 100 µM,> 100 µM,> 100 µM,> 100 µM,> 100 µM,> 100 µM,> 100 µM,> 100 µM,> 100 µM,> 100 µM,> 100 µM,> 100 µM
O=C(Nc1cccc(C(F)(F)F)c1)c1cc2ccccc2cc1O,2.7 µM,> 61.6 µM,2.22 µM,> 100 µM,2.34 µM,> 100 µM,2.88 µM,> 57.7 µM,2.45 µM,8.44 µM,1.37 µM,4.72 µM,0.471 µM,> 19.9 µM,3.7 µM,> 31.3 µM,1.93 µM,> 25.6 µM,1.55 µM,6.32 µM
Nc1nc(N)c2c(n1)NC(c1sc(Cl)nc1Cl)CC(c1ccc3c(c1)OCO3)=N2 (stereo not given),6.47 µM,> 100 µM,8.45 µM,34.4 µM,1.07 µM,20 µM,10.4 µM,47.6 µM,3.93 µM,21.4 µM,0.353 µM,11.6 µM,2.51 µM,13 µM,4.86 µM,46.9 µM,5.15 µM,32.4 µM,2.78 µM,9.77 µM
CNC(c1ccncc1)C(NC)c1ccncc1 (stereo not given),–,> 100 µM,–,> 100 µM,–,> 100 µM,–,> 100 µM,–,> 100 µM,–,> 100 µM,–,> 100 µM,–,> 100 µM,–,> 100 µM,–,> 100 µM
